# According to publication PMC6373163, “Potential in vitro anti-allergic, anti-inflammatory and cytotoxic activities of ethanolic extract of Baliospermum montanum root, its major components and a validated HPLC method” (BMC Complementary and Alternative Medicine, 2019):
# Assays:
# [1] = system: β-hexosaminidase released from RBL-2H3 cells; experiment: Inhibition of β-hexosaminidase release from IgE-sensitized, DNP-BSA-stimulated RBL-2H3 cells (anti-allergic activity); assay type: cell-based, rat; conditions: for inhibition at 1 µg/mL / inhibition at 10 µg/mL / inhibition at 50 µg/mL / IC50 / inhibition at 0.1 µg/mL: Rattus norvegicus, mean ± SD, triplicate; for inhibition at 1 µg/mL: 1 μg/ml; for inhibition at 10 µg/mL: 10 μg/ml; for inhibition at 50 µg/mL: 50 μg/ml; for inhibition at 0.1 µg/mL: 0.1 μg/ml
# Method: Inhibitory activity on β-hexosaminidase released from rat basophilic leukemia cells (RBL-2H3) was evaluated following the report of Juckmetha and co-workers. RBL-2H3 cells were cultured in MEM supplemented with 15% FBS, penicillin/streptomycin (each 100 μg/mL). Cells were seeded in 24-well plate with the concentration of 5 × 10^5 cells/well and incubated in 5% CO2 at 37 °C for 1.5 h. RBL-2H3 were sensitized with 0.45 μg/mL of Anti-DNP IgE and incubated at 37 °C in 5% CO2 for 24 h. Cells were then washed with 400 μL of Siraganian buffer (Buffer A) [119 mM NaCl, 5 mM KCl, 5.6 mM glucose, 0.4 mM MgCl2, 1 mM CaCl2, 25 mM piperazine-N,N′-bis (2-ethanesulfonic acid) (PIPES), 0.1% BSA, and 40 mM NaOH, pH 7.2]. Subsequently, 160 μL of buffer A was added into the wells and incubated at 37 °C for 10 min. The stock solution of the sample was diluted in DMSO and the working samples were diluted with buffer A. The concentrations of the working samples were 0.1 μg/mL, 1 μg/mL, 10 μg/mL and 50 μg/mL. The serially diluted samples (20 μL) were added to each well and incubated for 10 min. The reaction of antigen-antibody was obtained by adding 20 μL of antigen (DNP-BSA) to produce a final concentration of 10 μg/mL and incubated at 37 °C for 20 min. The amount of β-hexosaminidase released from the degranulation was determined by adding 50 μL of the substrate, PNAG (1 mM in 0.1 M citrate buffer, pH 4.5). The enzyme reaction was stopped by adding 200 μL of 0.1 M carbonate buffer pH 10.0. The product of enzyme reaction, p-nitrophenol, was analyzed by measuring absorbance at wavelength 405 nm. Chlorpheniramine was used as positive control. The percentage of inhibition was calculated by the following equation. Inhibition%=1−T−B−N/C−B−N×100
# Where • C = Optical density of control: [+] DNP-BSA, [−] Test sample; • T = Optical density of test sample: [+] DNP-BSA, [+] Test sample; • B = Optical density of blank: […], [+] Test sample; • N = Optical density of normal: [−] DNP-BSA, [−] Test sample.
# [2] = system: β-hexosaminidase released from RBL-2H3 cells; experiment: as above; assay type: cell-based; conditions: Rattus norvegicus, 100 μg/ml, mean ± SD, triplicate
# KKU-M156 = experiment: Cytotoxic activity by sulforhodamine B (SRB) assay, KKU-M156; assay type: cell-based; conditions: for Selective index: HaCaT versus KKU-M156; for IC50: KKU-M156, SRB, 72 h exposure, 72 h recovery
# Method: (§1) The crude extracts and isolated compounds were evaluated for cytotoxic activity by using sulforhodamine B (SRB) assay against two cancerous liver cells (HepG2 and KKU-M156) and a normal cells (HaCaT). The SRB protocol has been described previously. HepG2 was cultured in MEM; KKU-M156 was cultured in HAM F-12 media and HaCaT was cultured in DMEM. All cultured media were supplemented with 10% FBS, penicillin/streptomycin (each 100 units/mL). All cells were incubated in 5% CO2 at 37 °C with 95% humidity. Based on the growth curve, each cell was seeded into 96-well plate (100 μL per well) with optimal density (HepG2: 3 × 10^3 cells per well, KKU-M156: 2 × 10^3 cells per well and HaCaT: 8 × 10^3 cells per well). Seeded cells were incubated at 37 °C in a 5% CO2 with 95% humidity for 24 h. Cells were then treated with 100 μL of different concentrations of sample solution (0.1 μg/mL, 1 μg/mL, 10 μg/mL and 50 μg/mL). DMSO at the same concentration as the sample (2% v/v) was used as the control solvent. Cell cultures were incubated for the exposure time of 72 h. After the exposure time, the medium was removed and the plate was washed with 200 μL phosphate buffer saline (PBS) and 200 μL fresh medium was added into each well. The plates were then incubated for 72 h for the recovery period. The cells were then fixed by adding 100 μL of 40% trichloroacetic acid and the plates left at 4 °C for 45 min. After the plates were washed, 50 μL of SRB solution (0.4% w/v in acetic acid) was added into each well and the cells were allowed to be strained for 30 min. The stained cells were dissolved by using 100 μL of 10 mM Tris base pH 10.5. The %inhibition was calculated using the following equation. Inhibition%=ODcontrol‐ODsample/ODcontrol×100
# [3] = Viability of LPS-treated RAW 264.7 cells (MTT); assay type: cell-based, murine; conditions: mouse
# Method: The viability of the LPS treated RAW 264.7 cells were colorimetrically determined by using 3-(4, 5-dimethyl-2-thiazolyl)-2, 5-diphenyl-2H-tetrazolium bromide (MTT) method. MTT solution (10 μL) was added into each well and the plate was incubated for 2 h. The remained formazan crystal in each well, after removing the medium, was dissolved by 0.04 M HCl in isopropanol (100 μL). The optical density was measured by using microplate reader at wavelength 570 nm.
# HepG2 = experiment: Cytotoxic activity by sulforhodamine B (SRB) assay, HepG2; assay type: cell-based; conditions: for Selective index: HaCaT versus HepG2; for IC50: Homo sapiens, HepG2, SRB, 72 h exposure, 72 h recovery
# Method: as §1
# [4] = Cytotoxic activity by sulforhodamine B (SRB) assay, normal cells HaCaT; assay type: cell-based; conditions: human, 72 h exposure, 72 h recovery
# Method: as §1
# [5] = system: NO production of LPS-induced RAW 264.7 cells; experiment: Inhibition of NO production in LPS-induced RAW 264.7 cells (Griess reagent); assay type: cell-based, murine; conditions: Mus musculus; for inhibition at 0.1 µg/mL: RAW264.7, 0.1 μg/mL; for inhibition at 0.1 µg/mL / inhibition at 1 µg/mL / inhibition at 10 µg/mL / inhibition at 50 µg/mL: mean ± SD, read-out: %Inhibition of LPS-induced nitric oxide release; for inhibition at 1 µg/mL: RAW264.7, 1 μg/mL; for inhibition at 10 µg/mL: RAW264.7, 10 μg/mL; for inhibition at 50 µg/mL: RAW264.7, 50 μg/mL; for IC50: RAW264.7, mean ± SD, triplicate, read-out: IC50, LPS-induced nitric oxide release
# Method: The inhibitory activity of crude extracts and isolated compounds on NO production of LPS-induced RAW 264.7 cells was investigated according to a previously reported method. RAW 264.7 cells were cultured in RPMI medium supplemented with 10% FBS, penicillin/streptomycin (each 100 units/mL) and incubated at 37 °C in 5% CO2 with 95% humidity. The cells were seeded into 96-well plate (1 × 10^5 cells per well) and incubated for 24 h. Subsequently, the cells were induced by LPS at the final concentration of 2 ng/mL and the serially diluted samples (0.1 μg/mL, 1 μg/mL, 10 μg/mL and 50 μg/mL) were added. The plate was incubated for 24 h before being tested for NO accumulation and cell viability. Prednisolone was used as positive control. The accumulated NO released from the LPS-induced RAW 264.7 cells was determined by using Griess’s reagent (1% sulfanilamide and 0.1% N-(1- naphthyl) ethylenediamine dihydrochloride in 2.5% phosphoric acid). The supernatant in each well (100 μL) was transferred to another 96-well plate and 100 μL of Griess’s reagent was added. The optical density of reaction was measured at 570 nm. The inhibitory activity (%) of NO production was calculated by the following equation and the IC50 values were calculated. Inhibition%=ODcontrol‐ODsample/ODcontrol×100
# [6] = system: NO production of LPS-induced RAW 264.7 cells; experiment: as above; assay type: cell-based, murine; conditions: Mus musculus, RAW264.7, 0.01 μg/mL, mean ± SD, read-out: %Inhibition of LPS-induced nitric oxide release
Structure (SMILES),IC50 [5],inhibition at 1 µg/mL [1],inhibition at 10 µg/mL [1],inhibition at 50 µg/mL [1],IC50 [1],Selective index (KKU-M156),IC50 (KKU-M156),viability at 0.1 μg/mL [3],viability at 1 μg/mL [3],viability at 10 μg/mL [3],viability at 50 μg/mL [3],Selective index (HepG2),IC50 (HepG2),IC50 at 72 h [4],inhibition at 0.1 µg/mL [1],inhibition at 0.1 µg/mL [5],inhibition at 1 µg/mL [5],inhibition at 10 µg/mL [5],inhibition at 50 µg/mL [5],also measured
"CN(C)CCC(c1ccc(Cl)cc1)c1ccccn1 (centres unmarked) [Chlorpheniramine, reference compound]",–,14.9 ± 1.57%,36.2 ± 2.84%,71.4 ± 11%,17.7 ± 1.61 µg/mL,–,–,–,–,–,–,–,–,–,–,–,–,–,–,inhibition at 100 µg/mL [2]: 81.3 ± 9.51%
"CCC(=O)c1ccc(OC)c(OC)c1 [Compound 1, 1-(3′,4′-dimethoxyphenyl) propan-1-one]",40.4 ± 1.32 µg/mL,4.84 ± 3.46%,29.4 ± 2.01%,77.7 ± 3.6%,21.2 ± 2.01 µg/mL,> 1.71,58.3 ± 5.95 µg/mL,84.7%,89.7%,84.7%,80.5%,> 1.15,87.1 ± 1.36 µg/mL,> 100 µg/mL,-7.88 ± 3.01%,2.66 ± 0.23%,3.91 ± 3.03%,14.4 ± 1.71%,69.2 ± 2.49%,–
"CC[C@]1(O)C[C@H]2CN(CCc3c([nH]c4ccccc34)[C@@](C(=O)OC)(c3cc4c(cc3OC)N(C=O)[C@H]3[C@@](O)(C(=O)OC)[C@H](OC(C)=O)[C@]5(CC)C=CCN6CC[C@]43[C@@H]65)C2)C1 [Vincristine, reference compound]",–,–,–,–,–,< 0.033,0.003 ± 0.0015 µg/mL,–,–,–,–,< 0.008,0.013 ± 0.0006 µg/mL,< 0.0001 µg/mL,–,–,–,–,–,–

# Continued, in another order:
IC50 [5],Structure (SMILES),inhibition at 1 µg/mL [1],inhibition at 10 µg/mL [1],inhibition at 50 µg/mL [1],IC50 [1],Selective index (KKU-M156),IC50 (KKU-M156),viability at 0.1 μg/mL [3],viability at 1 μg/mL [3],viability at 10 μg/mL [3],viability at 50 μg/mL [3],Selective index (HepG2),IC50 (HepG2),IC50 at 72 h [4],inhibition at 0.1 µg/mL [1],inhibition at 0.1 µg/mL [5],inhibition at 1 µg/mL [5],inhibition at 10 µg/mL [5],inhibition at 50 µg/mL [5],also measured
33.6 ± 5.25 µg/mL,"CCC(=O)c1cc(OC)c(OC)c(OC)c1 [Compound 2, 1-(3′,4′,5′-trimethoxyphenyl) propan-1-one]",15.1 ± 1.71%,30.4 ± 6.7%,75.2 ± 6.47%,26.2 ± 6.06 µg/mL,> 1.04,95.65 ± 0.48 µg/mL,94.5%,88.8%,80.8%,90.4%,> 2.10,47.6 ± 1.2 µg/mL,> 100 µg/mL,-5.37 ± 2.3%,7.09 ± 6.86%,11.1 ± 9.89%,8.69 ± 6.93%,58.8 ± 3.59%,–
> 50 µg/mL,"CCC(=O)c1cc(OC)c(OC)cc1O [Compound 3, 1-(2′-hydroxy-4′, 5′-dimethoxyphenyl) propan-1-one]",8.52 ± 2.93%,17.4 ± 5.72%,60.8 ± 8.98%,44.4 ± 7.33 µg/mL,> 1.20,83.4 ± 5.2 µg/mL,102%,97%,97.3%,91.6%,> 1.11,90.3 ± 5.65 µg/mL,> 100 µg/mL,-14.2 ± 5.67%,-0.82 ± 3.26%,2.64 ± 0.31%,14.6 ± 3.43%,34.4 ± 3.07%,anti-allergic activity (in words) ([1]; judged from IC50): moderate activity
0.11 ± 0.02 µg/mL,"C[C@]12C=CC(=O)C=C1CC[C@@H]1[C@@H]2[C@@H](O)C[C@@]2(C)[C@H]1CC[C@]2(O)C(=O)CO [Prednisolone, reference compound]",–,–,–,–,–,–,84.3%,89.5%,80.8%,–,–,–,–,–,47.7 ± 6.24%,69.9 ± 3.76%,77.9 ± 8.12%,–,viability at 0.01 μg/mL ([3]; 0.01 μg/mL): 100%; inhibition at 0.01 µg/mL [6]: 19.8 ± 3.43%
